Measured values from patent US11274083B2, “Substituted thiophenyl uracils, salts thereof and the use thereof as herbicidal agents” (Syngenta Crop Protection AG, priority 2017, dated 2022).

Experiments:
Assay type in all cases: in vivo
Abutilon theophrasti [1] = assay: Herbicidal action post-emergence, greenhouse pot test
Summary of the method: (§1)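 Test plants, treated at the one-leaf stage 2 to 3 weeks after sowing in sandy loam, received a foliar spray at 80 g/ha or lower. Visual damage was rated about 3 weeks later as percent efficacy versus untreated plants.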

Amaranthus retroflexus [2] = assay: as above
Summary of the method: as §1

Echinochloa crus-galli [3] = assay: as above
Summary of the method: as §1

Lolium rigidum [4] = assay: as above; settings: application rate 80 g/ha
Summary of the method: as §1

Matricaria inodora [5] = assay: as above
Summary of the method: as §1

Pharbitis purpurea [6] = assay: as above
Summary of the method: as §1

Polygonum convolvulus [7] = assay: as above
Summary of the method: as §1

Setaria viridis [8] = assay: as above
Summary of the method: as §1

Stellaria media [9] = assay: as above
Summary of the method: as §1

Veronica persica [10] = assay: as above
Summary of the method: as §1

Viola tricolor [11] = assay: as above
Summary of the method: as §1

Glycine max = assay: Crop compatibility post-emergence, greenhouse pot test
Summary of the method: (§2)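 Visual % damage rating versus untreated plants (100% = plants dead, 0% = as control), taken about 3 weeks post-treatment. Spray applied to foliage at one-leaf stage (2–3 weeks from sowing) as WP/EC formulation in water plus 0.5% additive, 600 L/ha; greenhouse pots, sandy loam.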

Oryza sativa = assay: as above
Summary of the method: as §2

Triticum aestivum = assay: as above
Summary of the method: as §2

Abutilon theophrasti [12] = assay: Herbicidal action pre-emergence, greenhouse pot test; settings: application rate 320 g/ha
Summary of the method: (§3)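 Under good greenhouse growth conditions, treated pots are compared visually with untreated ones about three weeks after spraying; the score runs from 0% (like control) to 100% (plants died). Treatment was a WP or EC spray to the soil over sown seeds, at up to 320 g/ha.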

Alopecurus myosuroides [13] = assay: as above; settings: application rate 320 g/ha
Summary of the method: as §3

Amaranthus retroflexus [14] = assay: as above; settings: application rate 80 g/ha
Summary of the method: as §3

Avena fatua [15] = assay: as above; settings: application rate 320 g/ha
Summary of the method: as §3

Cyperus esculentus = assay: as above; settings: application rate 320 g/ha
Summary of the method: as §3

Echinochloa crus-galli [16] = assay: as above; settings: application rate 320 g/ha
Summary of the method: as §3

Hordeum murinum = assay: as above; settings: application rate 320 g/ha
Summary of the method: as §3

Lolium rigidum [17] = assay: as above; settings: application rate 320 g/ha
Summary of the method: as §3

Pharbitis purpurea [18] = assay: as above; settings: application rate 320 g/ha
Summary of the method: as §3

Polygonum convolvulus [19] = assay: as above; settings: application rate 320 g/ha
Summary of the method: as §3

Setaria viridis [20] = assay: as above; settings: application rate 320 g/ha
Summary of the method: as §3

Stellaria media [21] = assay: as above; settings: application rate 320 g/ha
Summary of the method: as §3

Veronica persica [22] = assay: as above; settings: application rate 320 g/ha
Summary of the method: as §3

Viola tricolor [23] = assay: as above; settings: application rate 320 g/ha
Summary of the method: as §3

Matricaria inodora [24] = assay: as above; settings: application rate 320 g/ha
Alopecurus myosuroides [25] = assay: Herbicidal action post-emergence, greenhouse pot test; settings: scored visually after about 3 weeks vs untreated controls
Summary of the method: as §1

Avena fatua [26] = assay: as above; settings: application rate 80 g/ha
Summary of the method: as §1

Zea mays = assay: Crop compatibility post-emergence, greenhouse pot test
Summary of the method: as §2

Digitaria sanguinalis = assay: Herbicidal action post-emergence, greenhouse pot test; settings: application rate 20 g/ha

`CC(Sc1cc(-n2c(=O)cc(C(F)(F)F)n(C)c2=O)c(F)cc1Cl)C(=O)OCC(=O)N(C)C` (centres unmarked) [I.1-241] was tested, and the “Abutilon theophrasti (Efficacy in %)” value (Abutilon theophrasti [1]; application rate 80 g/ha) was 100%, the “Amaranthus retroflexus (Efficacy in %)” value (Amaranthus retroflexus [2]; application rate 80 g/ha) was 100% and the “Echinochloa crus-galli (Efficacy in %)” value (Echinochloa crus-galli [3]; application rate 80 g/ha) was 100%. The “Lolium rigidum (Efficacy in %)” value (Lolium rigidum [4]) was 90%, the “Matricaria inodora (Efficacy in %)” value (Matricaria inodora [5]; application rate 80 g/ha) was 100% and the “Pharbitis purpurea (Efficacy in %)” value (Pharbitis purpurea [6]; application rate 80 g/ha) was 100%. The “Polygonum convolvulus (Efficacy in %)” value (Polygonum convolvulus [7]; application rate 80 g/ha) was 100%, the “Setaria viridis (Efficacy in %)” value (Setaria viridis [8]; application rate 80 g/ha) was 100% and the “Stellaria media (Efficacy in %)” value (Stellaria media [9]; application rate 80 g/ha) was 100%. The “Veronica persica (Efficacy in %)” value (Veronica persica [10]; application rate 80 g/ha) was 100%, the “Viola tricolor (Efficacy in %)” value (Viola tricolor [11]; application rate 80 g/ha) was 100% and the “Glycine max (Efficacy in %)” value (Glycine max; application rate 5 g/ha) was 10%. The “Oryza sativa (Efficacy in %)” value (Oryza sativa; application rate 5 g/ha) was 10%, the “Triticum aestivum (Efficacy in %)” value (Triticum aestivum; application rate 5 g/ha) was 10% and the “Abutilon theophrasti (Efficacy in %)” value (Abutilon theophrasti [12]) was 100%. For the same compound, the “Alopecurus myosuroides (Efficacy in %)” value (Alopecurus myosuroides [13]) was 100%, the “Amaranthus retroflexus (Efficacy in %)” value (Amaranthus retroflexus [14]) was 100% and the “Avena fatua (Efficacy in %)” value (Avena fatua [15]) was 100%. The “Cyperus esculentus (Efficacy in %)” value (Cyperus esculentus) was 100%, the “Echinochloa crus-galli (Efficacy in %)” value (Echinochloa crus-galli [16]) was 100% and the “Hordeum murinum (Efficacy in %)” value (Hordeum murinum) was 100%. The “Lolium rigidum (Efficacy in %)” value (Lolium rigidum [17]) was 100%, the “Pharbitis purpurea (Efficacy in %)” value (Pharbitis purpurea [18]) was 100% and the “Polygonum convolvulus (Efficacy in %)” value (Polygonum convolvulus [19]) was 100%. For the same compound, the “Setaria viridis (Efficacy in %)” value (Setaria viridis [20]) was 100%, the “Stellaria media (Efficacy in %)” value (Stellaria media [21]) was 100% and the “Veronica persica (Efficacy in %)” value (Veronica persica [22]) was 100%. For the same compound, the “Viola tricolor (Efficacy in %)” value (Viola tricolor [23]) was 100% and the “Matricaria inodora (Efficacy in %)” value (Matricaria inodora [24]) was 100%.
In the case of `CC(Sc1cc(-n2c(=O)cc(C(F)(F)F)n(C)c2=O)c(F)cc1Cl)C(=O)OCC1CCC(=O)N1` (centres unmarked) [I.1-255], the “Abutilon theophrasti (Efficacy in %)” value (Abutilon theophrasti [1]; application rate 80 g/ha) is reported as 100%, the “Alopecurus myosuroides (Efficacy in %)” value (Alopecurus myosuroides [25]; application rate 80 g/ha) is reported as 90% and the “Amaranthus retroflexus (Efficacy in %)” value (Amaranthus retroflexus [2]; application rate 80 g/ha) is reported as 100%. The “Avena fatua (Efficacy in %)” value (Avena fatua [26]) was 80%, the “Echinochloa crus-galli (Efficacy in %)” value (Echinochloa crus-galli [3]; application rate 80 g/ha) was 100% and the “Lolium rigidum (Efficacy in %)” value (Lolium rigidum [4]) was 100%. For the same compound, the “Matricaria inodora (Efficacy in %)” value (Matricaria inodora [5]; application rate 80 g/ha) was 100%, the “Pharbitis purpurea (Efficacy in %)” value (Pharbitis purpurea [6]; application rate 80 g/ha) was 100% and the “Polygonum convolvulus (Efficacy in %)” value (Polygonum convolvulus [7]; application rate 80 g/ha) was 100%. For the same compound, the “Setaria viridis (Efficacy in %)” value (Setaria viridis [8]; application rate 80 g/ha) was 100%, the “Stellaria media (Efficacy in %)” value (Stellaria media [9]; application rate 80 g/ha) was 100% and the “Veronica persica (Efficacy in %)” value (Veronica persica [10]; application rate 80 g/ha) was 100%. The “Viola tricolor (Efficacy in %)” value (Viola tricolor [11]; application rate 80 g/ha) was 100%, the “Glycine max (Efficacy in %)” value (Glycine max; application rate 20 g/ha) was 20% and the “Oryza sativa (Efficacy in %)” value (Oryza sativa; application rate 80 g/ha) was 0%. The “Triticum aestivum (Efficacy in %)” value (Triticum aestivum; application rate 20 g/ha) was 10%, the “Zea mays (Efficacy in %)” value (Zea mays; application rate 80 g/ha) was 10% and the “Abutilon theophrasti (Efficacy in %)” value (Abutilon theophrasti [12]) was 100%. The “Alopecurus myosuroides (Efficacy in %)” value (Alopecurus myosuroides [13]) was 90%, the “Amaranthus retroflexus (Efficacy in %)” value (Amaranthus retroflexus [14]) was 100% and the “Avena fatua (Efficacy in %)” value (Avena fatua [15]) was 90%. The “Echinochloa crus-galli (Efficacy in %)” value (Echinochloa crus-galli [16]) was 100%, the “Hordeum murinum (Efficacy in %)” value (Hordeum murinum) was 100% and the “Lolium rigidum (Efficacy in %)” value (Lolium rigidum [17]) was 100%. For the same compound, the “Pharbitis purpurea (Efficacy in %)” value (Pharbitis purpurea [18]) was 100%, the “Polygonum convolvulus (Efficacy in %)” value (Polygonum convolvulus [19]) was 100% and the “Setaria viridis (Efficacy in %)” value (Setaria viridis [20]) was 100%. The “Stellaria media (Efficacy in %)” value (Stellaria media [21]) was 100%, the “Veronica persica (Efficacy in %)” value (Veronica persica [22]) was 100% and the “Viola tricolor (Efficacy in %)” value (Viola tricolor [23]) was 100%. For the same compound, the “Matricaria inodora (Efficacy in %)” value (Matricaria inodora [24]) was 100%.
With `CCC(Sc1cc(-n2c(=O)cc(C(F)(F)F)n(C)c2=O)c(F)cc1Cl)C(=O)OCCC(=O)OCc1ccccc1` (centres unmarked) [I.2-6] the “Abutilon theophrasti (Efficacy in %)” value (Abutilon theophrasti [1]; application rate 70 g/ha) was 100%, the “Alopecurus myosuroides (Efficacy in %)” value (Alopecurus myosuroides [25]; application rate 20 g/ha) was 80% and the “Amaranthus retroflexus (Efficacy in %)” value (Amaranthus retroflexus [2]; application rate 20 g/ha) was 100%. The “Echinochloa crus-galli (Efficacy in %)” value (Echinochloa crus-galli [3]; application rate 20 g/ha) was 100%, the “Matricaria inodora (Efficacy in %)” value (Matricaria inodora [5]; application rate 20 g/ha) was 100% and the “Pharbitis purpurea (Efficacy in %)” value (Pharbitis purpurea [6]; application rate 20 g/ha) was 100%. For the same compound, the “Polygonum convolvulus (Efficacy in %)” value (Polygonum convolvulus [7]; application rate 20 g/ha) was 100%, the “Setaria viridis (Efficacy in %)” value (Setaria viridis [8]; application rate 20 g/ha) was 100% and the “Stellaria media (Efficacy in %)” value (Stellaria media [9]; application rate 20 g/ha) was 100%. For the same compound, the “Veronica persica (Efficacy in %)” value (Veronica persica [10]; application rate 20 g/ha) was 100%, the “Viola tricolor (Efficacy in %)” value (Viola tricolor [11]; application rate 20 g/ha) was 100% and the “Glycine max (Efficacy in %)” value (Glycine max; application rate 5 g/ha) was 20%. For the same compound, the “Oryza sativa (Efficacy in %)” value (Oryza sativa; application rate 20 g/ha) was 10%, the “Triticum aestivum (Efficacy in %)” value (Triticum aestivum; application rate 20 g/ha) was 20% and the “Zea mays (Efficacy in %)” value (Zea mays; application rate 5 g/ha) was 0%. For the same compound, the “Digitaria sanguinalis (Efficacy in %)” value (Digitaria sanguinalis) was 80%.
In the case of `COC(=O)CCOC(=O)C(C)(C)Sc1cc(-n2c(=O)cc(C(F)(F)F)n(C)c2=O)c(F)cc1Cl` [I.46-2], the “Abutilon theophrasti (Efficacy in %)” value (Abutilon theophrasti [1]; application rate 80 g/ha) is reported as 100%, the “Amaranthus retroflexus (Efficacy in %)” value (Amaranthus retroflexus [2]; application rate 80 g/ha) is reported as 100% and the “Echinochloa crus-galli (Efficacy in %)” value (Echinochloa crus-galli [3]; application rate 80 g/ha) is reported as 100%. The “Matricaria inodora (Efficacy in %)” value (Matricaria inodora [5]; application rate 20 g/ha) was 100%, the “Pharbitis purpurea (Efficacy in %)” value (Pharbitis purpurea [6]; application rate 80 g/ha) was 100% and the “Polygonum convolvulus (Efficacy in %)” value (Polygonum convolvulus [7]; application rate 20 g/ha) was 100%. For the same compound, the “Setaria viridis (Efficacy in %)” value (Setaria viridis [8]; application rate 80 g/ha) was 100%, the “Stellaria media (Efficacy in %)” value (Stellaria media [9]; application rate 80 g/ha) was 80% and the “Veronica persica (Efficacy in %)” value (Veronica persica [10]; application rate 80 g/ha) was 80%. The “Viola tricolor (Efficacy in %)” value (Viola tricolor [11]; application rate 80 g/ha) was 80%, the “Glycine max (Efficacy in %)” value (Glycine max; application rate 5 g/ha) was 20% and the “Oryza sativa (Efficacy in %)” value (Oryza sativa; application rate 80 g/ha) was 20%. The “Triticum aestivum (Efficacy in %)” value (Triticum aestivum; application rate 20 g/ha) was 20%, the “Zea mays (Efficacy in %)” value (Zea mays; application rate 20 g/ha) was 20% and the “Abutilon theophrasti (Efficacy in %)” value (Abutilon theophrasti [12]) was 100%. For the same compound, the “Alopecurus myosuroides (Efficacy in %)” value (Alopecurus myosuroides [13]) was 90%, the “Amaranthus retroflexus (Efficacy in %)” value (Amaranthus retroflexus [14]) was 100% and the “Echinochloa crus-galli (Efficacy in %)” value (Echinochloa crus-galli [16]) was 100%. The “Lolium rigidum (Efficacy in %)” value (Lolium rigidum [17]) was 100%, the “Pharbitis purpurea (Efficacy in %)” value (Pharbitis purpurea [18]) was 100% and the “Polygonum convolvulus (Efficacy in %)” value (Polygonum convolvulus [19]) was 100%. For the same compound, the “Setaria viridis (Efficacy in %)” value (Setaria viridis [20]) was 100%, the “Stellaria media (Efficacy in %)” value (Stellaria media [21]) was 100% and the “Veronica persica (Efficacy in %)” value (Veronica persica [22]) was 100%. The “Matricaria inodora (Efficacy in %)” value (Matricaria inodora [24]) was 100%.
